Measured values reported in PMC12751061, “Expression and characterization of an endo-β-1,6-galactanase from Arabidopsis thaliana” (Biochemical Journal, 2025).

Target: T1, ATIYA1 (Arabidopsis thaliana, UniProt F4HP22)
T1 construct: gene At1g13130; secreted from Komagataella phaffii X-33 (pPICZalpha-A), N-glycosylated, Ni-NTA purified
Test: HPAEC-PAD hydrolysis time course
Format: biochemical
Settings: 100 µM substrate, 10 nM enzyme, 0.1 M sodium acetate pH 5.0, 30°C

T1 sequence (F4HP22 entry or part of it): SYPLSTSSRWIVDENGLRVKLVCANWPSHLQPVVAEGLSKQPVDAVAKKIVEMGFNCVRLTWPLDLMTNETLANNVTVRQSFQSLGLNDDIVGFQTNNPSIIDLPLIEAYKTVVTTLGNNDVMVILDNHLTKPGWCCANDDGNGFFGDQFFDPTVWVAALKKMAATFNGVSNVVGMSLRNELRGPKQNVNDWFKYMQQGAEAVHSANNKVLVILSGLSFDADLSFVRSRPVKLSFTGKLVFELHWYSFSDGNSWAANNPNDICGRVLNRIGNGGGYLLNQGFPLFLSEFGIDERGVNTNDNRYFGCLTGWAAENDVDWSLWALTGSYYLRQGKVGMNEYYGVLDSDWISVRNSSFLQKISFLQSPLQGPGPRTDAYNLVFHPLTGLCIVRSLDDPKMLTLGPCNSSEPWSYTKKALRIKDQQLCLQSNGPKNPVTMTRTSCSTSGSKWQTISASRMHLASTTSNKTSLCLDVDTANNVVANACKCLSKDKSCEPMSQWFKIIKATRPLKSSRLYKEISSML

| Compound | HPAEC-PAD hydrolysis time course |
| --- | --- |
| CO[C@@H]1O[C@H](CO[C@@H]2O[C@H](CO[C@@H]3O[C@H](CO[C@@H]4O[C@H](CO[C@@H]5O[C@H](CO)[C@H](O)[C@H](O)[C@H]5O)[C@H](O)[C@H](O)[C@H]4O)[C@H](O)[C@H](O)[C@H]3O)[C@H](O)[C@H](O)[C@H]2O)[C@H](O)[C@H](O)[C@H]1O [methyl-β-1,6-galactopentaoside] | preferring higher degrees of polymerization such as methyl-β-1,6-galactopentaoside and methyl-β-1,6-galactohexaoside |
| CO[C@@H]1O[C@H](CO[C@@H]2O[C@H](CO[C@@H]3O[C@H](CO[C@@H]4O[C@H](CO[C@@H]5O[C@H](CO[C@@H]6O[C@H](CO)[C@H](O)[C@H](O)[C@H]6O)[C@H](O)[C@H](O)[C@H]5O)[C@H](O)[C@H](O)[C@H]4O)[C@H](O)[C@H](O)[C@H]3O)[C@H](O)[C@H](O)[C@H]2O)[C@H](O)[C@H](O)[C@H]1O [methyl-β-1,6-galactohexaoside] | preferring higher degrees of polymerization such as methyl-β-1,6-galactopentaoside and methyl-β-1,6-galactohexaoside |
